Laboratory results taken from ChEMBL document CHEMBL1155423, “Unprecedented NES non-antagonistic inhibitor for nuclear export of Rev from Sida cordifolia” (Bioorg Med Chem Lett, 2010).

Assay: Inhibition of CRM1 interaction with HIV1 HA-tagged Rev in HeLa cells assessed as inhibition of Rev nuclear export by indirect fluorescent antibody technique
Type: cell-based

Row | IC50 | Structure (SMILES)
1 | > 30 µM | CCCCC/C=C\C=C\C(O)CCCCC(=O)O (configuration not stated)
2 | > 30 µM | CCCCCCCCCC(O)CCCCCCCC(=O)O (configuration not stated)
3 | 7.2 µM | CCCCC/C=C\C=C\C(O)CCCCCCCC(=O)O (configuration not stated)
4 | > 30 µM | CCCCC/C=C\C=C\C(O)CCC(=O)O (configuration not stated)
5 | 20.8 µM | CC(O)CCCCCCCC(=O)O (configuration not stated)
6 | 15 µM | CCCCC/C=C\C=C\CCCCCCCCC(=O)O
7 | > 30 µM | CCCCC/C=C\C=C\C(C)O (configuration not stated)
